The values that follow come from patent publication US10064834B2, “Carbidopa for the treatment of cancer” (Texas Tech University System, priority 2016, dated 2018).

Where two headings read alike, the source gives them in different places.

Series [1] relates to AhR.
Experimental: With a fixed concentration (10 μM), the inventors compared in HepG2 cells the induction of CYP1A1 by Carbidopa with that by other known AhR agonists, which included 3-ethylcholanthrene, benzo[a]pyrene, kynurenine, indole-3-carbinol, and indole acetic acid (Table 1).
Series [2] addresses indoleamine-2,3-dioxygenase 1 (IDO1) (Homo sapiens, UniProt P14902). The note with it: reference [13]; cited from earlier work.
Series [3] concerns AhR. The note with it: BxPC-3, Carbidopa 10 μM, 6 h.
The subject of series [4] is AhR. The note with it: Capan-2.
Series [5] has as its system BxPC-3 cells. Description: Colony formation (clonogenic) assay, BxPC-3. It counts as cell-based, human.
Experimental: Clonogenic assay was performed as described [12]. The cells were seeded at a very low density (500 cells/well) and allowed to attach to the substratum. They were then treated with 10 μM Carbidopa and the colonies were allowed to grow for two weeks. The wells were washed every other day and fresh Carbidopa was added to the wells. At the end of the two-week period, the wells were washed and the colonies were visualized with KaryoMax Giemsa stain after fixation with methanol. The stain was eluted with 1% sodium dodecyl sulfate in 0.2 NaOH and the absorbance was measured at 630 nm.
The subject of the next series is Panc-1 cells. The experiment in a line: Colony formation assay, Panc-1. It counts as cell-based. The note with it: Homo sapiens; Panc-1, colony formation; read-out: Carbidopa concentration for 50% inhibition of growth. The source says:
Colony formation assay was used to assess the effect.

In another series the test system is Capan-2 cells. Description: Colony formation (clonogenic) assay, Capan-2. It counts as cell-based, human. To be noted: Capan-2, 10 μM, two weeks. The protocol:
(§1) Cell proliferation. Clonogenic assay was performed as described. The cells were seeded at a very low density (500 cells/well) and allowed to attach to the substratum. […] The wells were washed every other day and fresh Carbidopa was added to the wells. At the end of the two-week period, the wells were washed and the colonies were visualized with KaryoMax Giemsa stain after fixation with methanol. The stain was eluted with 1% sodium dodecyl sulfate in […] and the absorbance was measured at 630 nm. Inhibition of pancreatic cancer cell proliferation by Carbidopa and its potential relevance to the ability of the drug to inhibit IDO1. To test whether Carbidopa has anticancer effect, the inventors used pancreatic cancer as a model. For this, the inventors first conducted a colony formation assay with a human pancreatic normal cell line (hTERT-HPNE) and two human pancreatic cancer cell lines (BxPC-3 and Capan-2). […] To corroborate these in vitro data, the inventors performed subcutaneous xenografts in athymic nude mice using BxPC-3 cells.

Another series deals with hTERT-HPNE cells. The experiment in a line: Colony formation (clonogenic) assay, normal pancreatic cell line. It counts as cell-based, human. The note with it: 10 μM, two weeks. As for the experimental part: as §1
In the next series the test system is MB-231 cells. Description: Colony formation assay, ER-negative breast cancer cells. It counts as cell-based, human. The text has this: Breast cancer occurs in different subtypes: estrogen receptor-positive, estrogen receptor-negative, and BRCA1-mutant. The MMTV-PyMT-Tg mice represent estrogen receptor-positive breast cancer at least at the initial stages. To assess the potential of Carbidopa for the treatment of ER-negative breast cancer, the inventors used the human breast cancer cell line MB-231, a well-established model to study ER-negative breast cancer in model systems. The inventors monitored the effect of Carbidopa (dose response) on the growth of these cells using the colony formation assay.

Another series relates to HCC-1937 cells. The experiment in a line: Colony formation assay, BRCA-1 mutant breast cancer cells. It counts as cell-based, human. The text has this:
Breast cancer occurs in different subtypes: estrogen receptor-positive, estrogen receptor-negative, and BRCA1-mutant. Mutations in BRCA-1 represent a small percentage of breast cancers in women but the disease is inheritable. […] To assess the potential of Carbidopa for the treatment of mutant BRCA-1-driven breast cancer, the inventors used the human breast cancer cell line HCC-1937, a well-established model to study mutant BRCA-1-driven breast cancer in model systems. The inventors monitored the effect of Carbidopa (dose response) on the growth of these cells using the colony formation assay.

Series [6] concerns BxPC-3 cells. Description: Subcutaneous BxPC-3 xenograft in athymic nude mice. It counts as in vivo, mouse.
Experimental: FIGS. 2A and 2B show the in vivo effect of Carbidopa on the growth of BxPC-3 cells in mouse xenografts. The cells were injected subcutaneously in athymic nude mice. Carbidopa (1 mg/mouse) was injected intraperitoneally (i.p.) two days prior to the injection of the tumor cells (prevention mode). Drug injection was continued every day at the same dose. […] The growth of the tumor at the injected site was monitored every other day.
Xenograft studies. Female athymic nu/nu mice (8-week-old) were allowed to acclimatize to the environment for about a week before the start of the experiment. The animals were divided into control and treatment groups and injected with phosphate-buffered saline (control group) and Carbidopa @ 1 mg/mouse/day) (treatment group) intraperitoneally, at least 5 days prior to tumor cell injection. BxPC-3 (10×10^6 cells in 30% matrigel) was injected subcutaneously at the right flank of the mice. The treatment continued all through the experimental period. Tumor size in different groups were measured using a caliper and the tumor volume was calculated using the formula (width^2×length)/2.
The subject of series [7] is spontaneous breast cancer driven by the polyoma middle T antigen oncogene. The experiment in a line: Spontaneous breast cancer in MMTV-PyMT-Tg mice. It counts as in vivo. To be noted: 1 mg/mouse i.p. The source says: The MMTV-PyMT-Tg mice develop spontaneous breast tumors within 2 months of age. […] The drug treatment was started at 4 weeks of age and continued for two months. The mice were photographed at the end of this experimental period. The circles indicate the tumor size in two representative control mice and two representative Carbidopa-treated mice. […] The MMTV-PyMT-Tg mice develop spontaneous breast tumors within 2 months of age. […] The drug treatment was started at 4 weeks of age and continued for three months. The mice were photographed at the end of the study period. The circles indicate the tumor size in two representative control mice and two representative Carbidopa-treated mice.

Series [8] concerns Ki-67, p-mTOR, HIF1α and Cyp1a1 protein expression. The experiment in a line: Immunohistochemical analysis in MMTV-PyMT-Tg mice. It counts as in vivo, mouse. To be noted: Carbidopa-treated MMTV-PyMT-Tg mice. The text has this:
FIG. 8 is an immunohistochemical analysis of Ki-67, p-mTOR, HIF1α and Cyp1a1 protein expression in MMTV-PyMT-Tg mice treated with and without Carbidopa. […] Hypoxia is a key regulatory factor in tumor progression and in response to the hypoxic tumor environment, it regulates cell metabolism and redox homeostasis. HIF1α level in tumors is controlled by mTOR. […] To further validate the data, the inventors measured the expression of Cyp1a1 in MMTV-PyMT-Tg mice treated with and without Carbidopa. Cyp1a1 is an aryl hydrocarbon (AhR) receptor-responsive gene induced in response to AhR activation. AhR is activated by kynurenine, a product of IDO1 action on tryptophan. Thus, Cyp1a1 levels in tumor tissues serve as a read out for IDO1 activity. […] H&E, hematoxylin and eosin stain.

For series [9], the target named is recombinant human indoleamine dioxygenase-1 (IDO1) (Homo sapiens, UniProt P14902). Description: IDO1 enzymatic activity assay (colorimetric). It counts as biochemical. The source says:
IDO-1 is an immunosuppressive enzyme that is induced in tumor cells and in immune cells present in tumor-draining lymph nodes. Induction of this enzyme suppresses the ability of the immune system to recognize tumor cells as foreign cells, which provides a means for the tumor cells to escape the immune attack. Pharmacological inhibition of this enzyme has potential in cancer treatment because such an approach will potentiate the ability of the immune system to kill the tumor cells. Many pharmaceutical companies have research programs in identifying selective inhibitors of IDO-1 for this purpose and some of the drugs are already in clinical trials in cancer patients. The present inventors assessed the ability of Carbidopa on the activity of this enzyme using the recombinant human enzyme.
To date, the only known pharmacological action of Carbidopa is the inhibition of aromatic amino acid decarboxylase, but the inventors are not aware of any direct association between this enzyme and cancer. Therefore, the inventors looked for new, hitherto unknown, pharmacological actions for this drug that could be related to the observed anticancer effect. […]

The test system of series [10] is AhR. The experiment in a line: Immunofluorescence localisation of AhR. It counts as cell-based, human. The note with it: 25 μM for 6 h.
Experimental: Immunofluorescence. Immunofluorescence studies were performed as described [12]. Briefly, cells grown on chamber slides were fixed, blocked and stained with mouse anti-AhR antibody (Abcam, Cambridge, Mass., USA) for 45 min after which they were washed and stained with secondary antibody (goat anti-mouse IgG) conjugated with Alexa Fluor 488 (Molecular Probes, Eugene, Oreg., USA); further washed and mounted with ProLong Diamond Antifade mountant with DAPI and the images were captured using a Nikon inverted microscope. Nuclei stained with DAPI are blue. Magnification, 100×.
The conditions of series [11]: human, oral, cited from earlier work.
The conditions of series [12]: cited from earlier work.
The conditions of series [13]: in vivo; cited from earlier work.
For series [14] the following is noted: in vivo; cited from earlier work. The source holds these as a separate data set.

recombinant human indoleamine dioxygenase-1 (IDO1), sequence (P14902 whole entry): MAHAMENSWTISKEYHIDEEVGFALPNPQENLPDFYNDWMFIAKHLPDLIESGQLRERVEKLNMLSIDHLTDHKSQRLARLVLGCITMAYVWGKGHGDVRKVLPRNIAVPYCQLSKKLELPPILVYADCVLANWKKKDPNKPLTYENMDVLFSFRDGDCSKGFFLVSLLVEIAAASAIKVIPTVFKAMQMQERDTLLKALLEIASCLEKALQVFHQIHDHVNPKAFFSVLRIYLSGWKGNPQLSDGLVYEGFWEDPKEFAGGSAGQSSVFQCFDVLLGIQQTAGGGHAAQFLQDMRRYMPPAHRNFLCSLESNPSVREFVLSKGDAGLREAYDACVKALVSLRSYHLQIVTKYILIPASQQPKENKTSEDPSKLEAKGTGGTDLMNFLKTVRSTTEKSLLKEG
indoleamine-2,3-dioxygenase 1 (IDO1), sequence (P14902 whole entry): as above

Regarding `Cc1ccc2cc3c(ccc4ccccc43)c3c2c1CC3` [3-Methylcholanthrene], in the series with AhR [1] (HepG2 cells, 10 micromolar), the “CYP1A1 expression, Fold [range]” value was found to be 56.8 Fold.
In the case of `c1ccc2c(c1)cc1ccc3cccc4ccc2c1c34` [Benzo [a] pyrene], the “CYP1A1 expression, Fold [range]” value with AhR [1] (HepG2 cells, 10 micromolar) turned out to be 35.3 Fold.
Turning to `N[C@@H](Cc1ccc(O)c(O)c1)C(=O)O` [L-DOPA, L-3,4-dihydroxyphenylalanine], the “CYP1A1 mRNA expression” value with AhR [1] (human, 6 h, 100 μM) is “did not affect CYP1A1 expression”.
Take `NNc1ccccc1` [phenylhydrazine]: in [2], the IC50 was 8 ± 2 µM.
In the case of `Nc1ccccc1C(=O)CC(N)C(=O)O` (stereo not shown) [Kynurenine], the “CYP1A1 expression, Fold [range]” value in the series on AhR [1] (human, 10 μM) is 3.97 Fold.
With `Cc1ccccc1N=Nc1ccc(NC(=O)c2ccnn2C)c(C)c1` [CH223191], the “effect of AhR antagonist on Carbidopa-induced CYP1A1 expression” value in the series with AhR [1] (HepG2, Carbidopa 10 μM, CH223191 10 μM, resveratrol 20 μM, 6 h) was “blocked”; with AhR [3], “blocked”; in the series on AhR [4] it was “blocked”.
For `OCc1c[nH]c2ccccc12` [Indole 3-carbinol], in the series on AhR [1] (HepG2 cells, 10 micromolar), the “CYP1A1 expression, Fold [range]” value came to 7.62 Fold.
On to `C[C@@](Cc1ccc(O)c(O)c1)(NN)C(=O)O` [Carbidopa, (2S)-3-(3,4-dihydroxyphenyl)-2-hydrazino-2-methylpropanoic acid], for which the “growth of BxPC-3 cells” value in the series on BxPC-3 cells [5] (10 μM Carbidopa, colony formation) was “almost completely abolished”. Also, the “number of colonies compared to untreated controls” value with BxPC-3 cells [5] (BxPC-3, 10 μM, two weeks) was “significantly reduced”; with Capan-2 cells, “significantly reduced”; in the series with hTERT-HPNE cells it was “not seen”. The IC50 is under 50 µM in the series on Panc-1 cells; under 15 µM in the series with MB-231 cells (Homo sapiens, MB-231, colony formation, read-out: Carbidopa concentration for 50% inhibition of growth); under 25 µM in the series with HCC-1937 cells (Homo sapiens, HCC1937, HCC-1937, colony formation, read-out: Carbidopa concentration for 50% inhibition of growth). Also, the “effect on the growth of the cells” value in the series on MB-231 cells (MB-231, dose response) was “marked inhibitory effect”; in the series with HCC-1937 cells (HCC-1937, dose response), “marked inhibitory effect”. For the same compound, in the series on BxPC-3 cells [6] (1 mg/mouse i.p. every day, prevention mode), the “growth of the tumor” value was “reduced the growth of the tumor markedly”. The “tumor volume compared to untreated controls” value in the series with BxPC-3 cells [6] (daily dose of 1 mg/mouse, intraperitoneal) is “significantly reduced the tumor volume”. For the same compound, the “number and size of the tumors” value in series [7] (treatment for three months) was “reduced the number and size of the tumors”; in series [7] (treatment for two months) it was “reduced the number and size of the tumors”. Besides, in [8], the “Cyp1a1 expression in tumor tissues” value is on record as “significant reduction in Cyp1a1 expression”. For the same compound, the HIF1α protein entry in series [8] is on record as “marked decrease in HIF1α protein”. Besides, in [8], the “Ki-67 staining (cell proliferation)” value was “marked reduction in proliferation”. Besides, the p-mTOR staining entry in [8] is “marked reduction in p-mTOR staining”. For the same compound, in series [9] (10 μM), the “inhibition of IDO-1 enzyme activity” value is on record as “inhibits IDO-1 significantly”. Also, the “inhibition of IDO1 enzyme activity” value in series [9] (colorimetric assay of kynurenine, efficacy said to be markedly underestimated) is “does indeed inhibit IDO1”. The “localisation of AhR” value in the series with AhR [10] (BxPC-3 cells) is “nuclear translocation of the receptor”; in the series with AhR [10] (Capan-2 cells), “nuclear translocation of the receptor”; in the series with AhR [10] (HepG2 cells), “led to the nuclear translocation of AhR”. Moreover, in the series on AhR [1], the “concentrations at which Carbidopa activates AhR” value lay within 3000 to 10000 nM. Besides, the “CYP1A1 expression, Fold [range]” value in the series on AhR [1] (human, 10 μM) was 2.63 Fold. Moreover, the “time post-treatment at which CYP1A1 induction is seen” value in the series on AhR [1] (human, 10 μM) is at most 3 h. Besides, the plasma concentration in series [11] (75 mg/day dose) was 2000 nM; in series [11] (450 mg/day dose), 16000 nM. The “side effects in humans” value in [12] (<400 mg/day in patients weighing 60 kg) is given as “no unwanted side effects”. The safety in humans entry in series [12] (dose as high as 450 mg/day) was “safe”. Besides, the “crossing of the blood-brain barrier” value in series [13] is reported as “inability of the latter to cross the blood-brain barrier”. Moreover, the oral bioavailability entry in series [14] was “orally bioavailable”.
